Measured values as given in patent US9867794B2, “Regulation of osteopontin” (Pathologica LLC, priority 2007, dated 2018).
“And” between values parts separate entries of the source, which are not always exact repeats. Equal entries are not always repeated.

Key:
Osteopontin = test: Macrophage Osteopontin production in migration assays; type: cell-based; conditions: 10 μM MGBG; from >200 ng/mL without drug
Procedure: Additionally, cells being targeted by MGBG were investigated. […] To elucidate the effects of MGBG and OPN on cell motility, migration assays were conducted. MGBG at 10 μM inhibited macrophage Osteopontin production from >200 ng/mL to nondetectable levels while simultaneously inhibiting HeLa cell invasion into a Matrigel matrix.

MX2 = test: Quantitative RT-PCR, unsorted mononuclear cells, MX2; type: cell-based, human
Procedure: (§1) To evaluate the effect of MGBG on gene expression, blood samples were obtained from patients (N=18, 10 HIV-infected and 8 Healthy Controls). Mononuclear cells were isolated via Percoll gradient centrifugation. The cells were split into two tubes, one treated with 10 μM of MGBG and the other non-treated. The cells were then cultured overnight in RPMI media plus 10% fetal bovine serum at 37 C under non-adherent conditions, collected, lysed using Trizol solution, and total RNA prepared according to manufacturer's instructions (Invitrogen, Carlsbad, Calif.).
(§2) Approximately 200 ng of total RNA prepared from each sample was converted to cDNA using the First Strand cDNA Synthesis Kit for RT-PCR [AMV] kit (Roche Applied Diagnostics, Indianapolis, Ind.) according to manufacturer's instructions. Around 5 ng of cDNA sample was then used for PCR performed on a LightCycler (Roche Applied Diagnostics, Indianapolis, Ind.) using the LightCycler FastStart DNA Master SYBR Green I kit. PCR conditions are as follows: 1 cycle of denaturation at 95° C. for 10 minutes, followed by 45 cycles of 95° C. for 10 seconds, 68° C. for 10 seconds, and 72° C. for 16 seconds.
(§3) The sequences of gene-specific primers evaluated are listed below. All samples were also amplified with the human β-actin LightCycler-Primer set (Roche Diagnostics).

OPN = OPN antibody staining of brains and lymph nodes of SIV-infected animals; type: in vivo, Rhesus macaques
Procedure: These monkeys were then treated with MGBG as described.

G1P3 = test: Quantitative RT-PCR, unsorted mononuclear cells, G1P3; type: cell-based, human
Procedure: as §1, §2, §3

ADA = test: Microarray analysis of mononuclear cells, ADA; type: cell-based, human; conditions: for ADA signal +, Average: 10 μM MGBG
Procedure: (§4) Blood samples were obtained from HIV infected patients (N=9) with positive viral load and reduced CD4 counts, and non-HIV infected, healthy controls (N=6). Blood was collected into heparin anticoagulant tubes and mononuclear cells were isolated by Percoll gradient centrifugation. The cells from each sample were split into 2: one-half receives MGBG at concentration of 10 μM and the other half received no treatment. All samples were then cultured overnight in RPMI media with 10% fetal bovine serum at 37° C. under non-adherent conditions. The next day cells were collected by centrifugation, washed one time with PBS, and lysed by resuspension in TRIZOL, and total RNA was prepared according to manufacturer's instructions (Invitrogen, Carlsbad, Calif.). […] The RNA was then amplified for microarray analysis using a 2 cycle amplification protocol according to the manufacturer's instructions (Affymetrix, Santa Clara, Calif.). The amplified RNAs were then hybridized to Human Genome U133 plus 2.0 microarrays (Affymetrix) and expression data was obtained using an Affymetrix scanner and GCOS protocols. Microarray data was analyzed with GeneSpring Microarray Suite. Results were normalized using a set of 100 probe sets determined by the manufacturer to have relatively invariant expression across most cell types.

GPR43 = test: QRT-PCR in CD14/CD16-separated cell fractions, GPR43 RNA; type: cell-based, human; conditions: CD14/CD16++ macrophages, 10 μM MGBG, p=0.03
Procedure: The changes induced by MGBG in different blood cell types were determined for osteopontin and adenosine deaminase and 7 other genes. For this experiment, blood samples were obtained from 6 healthy controls (3 men/3 women from 20 to 55 years of age) and mononuclear cells were isolated via Percoll gradient centrifugation. The cells were then incubated for 3 hours in RPMI media plus 10% fetal bovine serum at 37 C. At that point MGBG was added to 10 μM to half of each sample and then the cells were incubated at 37 C for 20 more hours. The cells were then bound to magnetic beads coated with antibodies to human CD16. Bound cells (CD16 expressing) were separated from unbound cells using an AutoMACs according to manufacturer's instructions (Miltenyi, Auburn Calif.). Then CD16+ cells are released from the magnetic beads and both the CD16+ and CD16− cells are combined with magnetic beads coated with antibodies to human CD14. Antibody bound and unbound cells were then separated using the AutoMACs machine. […] Cells that neither express CD16 nor CD14 (the −/− Cells). This is mostly T lymphocytes; 2. Cells that only express CD16. This includes contaminating granulocytes not removed by Percoll centrifugation and CD16+ monocytes with very low CD14 expression; 3. […] After separation, cells of each fraction are washed with PBS and the number of viable cells determined by trypan blue exclusion. […]

adenosine deaminase = test: QRT-PCR in CD14/CD16-separated cell fractions, adenosine deaminase RNA; type: cell-based, human; conditions: 10 μM MGBG
Procedure: The changes induced by MGBG in different blood cell types were determined for osteopontin and adenosine deaminase and 7 other genes. For this experiment, blood samples were obtained from 6 healthy controls (3 men/3 women from 20 to 55 years of age) and mononuclear cells were isolated via Percoll gradient centrifugation. The cells were then incubated for 3 hours in RPMI media plus 10% fetal bovine serum at 37 C. At that point MGBG was added to 10 μM to half of each sample and then the cells were incubated at 37 C for 20 more hours. The cells were then bound to magnetic beads coated with antibodies to human CD16. Bound cells (CD16 expressing) were separated from unbound cells using an AutoMACs according to manufacturer's instructions (Miltenyi, Auburn Calif.). Then CD16+ cells are released from the magnetic beads and both the CD16+ and CD16− cells are combined with magnetic beads coated with antibodies to human CD14. Antibody bound and unbound cells were then separated using the AutoMACs machine. […] Cells that neither express CD16 nor CD14 (the −/− Cells). This is mostly T lymphocytes; 2. Cells that only express CD16. This includes contaminating granulocytes not removed by Percoll centrifugation and CD16+ monocytes with very low CD14 expression; 3. Cells that express both CD16 and CD14. This includes monocytes that are expressing CD16+ and macrophages (which express high levels of both); and 4. Cells that only express CD14. This would include most normal human monocytes. After separation, cells of each fraction are washed with PBS and the number of viable cells determined by trypan blue exclusion. RNA is then prepared from each cell group using TRIZOL, according to manufacturer's instructions.

mononuclear cells = test: Microarray analysis, number of probes changed; type: cell-based, human; conditions: average signals, MGBG vs untreated samples
Procedure: as §4

LILRA1 = test: Microarray analysis of mononuclear cells, LILRA1; type: cell-based, human; conditions: for LILRA1 signal +, Average: 10 μM MGBG
Procedure: as §4

TNFα = test: Microarray analysis of mononuclear cells, TNFα probe; type: cell-based, human
Procedure: as §4

FCGR1a = test: Microarray analysis of mononuclear cells, FCGR1a; type: cell-based, human; conditions: for FCGR1a signal +, Average: 10 μM MGBG
Procedure: as §4

IL1RN = test: Quantitative RT-PCR, unsorted mononuclear cells, IL1RN; type: cell-based, human
Procedure: as §1, §2, §3

[1] = 10 μM MGBG overnight, individual samples
[2] = average of control samples (C6-, M6-177)
[3] = 10 μM, individual donor samples
[4] = presence of 10 μM MGBG overnight, individual donor samples
[5] = 10 μM MGBG, all unsorted samples

CC(/C=N/NC(=N)N)=N\NC(=N)N [MGBG, 1,1′ [methylethanediylidene]dinitrilodiguanidine]
macrophage Osteopontin production (Osteopontin): nondetectable
Fold change MX2 by QRT-PCR (MX2; [1]): 2.03 fold and −1.09 fold and 1.16 fold (2×) and −1.01 fold and 4.35 fold and 1.56 fold and −2.81 fold and 3.07 fold and −1.33 fold and −1.77 fold and −3.27 fold and 1.36 fold and 1.13 fold and −2.11 fold and −2.85 fold and 1.23 fold and 6.06 fold
MX2 AVERAGE (MX2; 10 μM MGBG, all samples): 1.55 fold
MX2 MAX (MX2; 10 μM MGBG, all samples): 6.06 fold
MX2 MIN (MX2; 10 μM MGBG, all samples): −3.27 fold
OPN in brains, antibody staining (OPN; FIG. 10, treated SIV-infected animals): complete removal of OPN
OPN staining in lymph nodes (OPN; FIG. 11, treated animals B146 and CB18): markedly decreased levels of OPN
Fold change G1P3 by QRT-PCR (G1P3; [1]): 1.92 fold and −1.25 fold (2×) and 1.31 fold and −2.03 fold and −1.14 fold (2×) and −2.04 fold and 2.13 fold and 1.22 fold (2×) and −2.99 fold and −6.63 fold and −1.95 fold and −2.85 fold and 1.47 fold and −1.66 fold and 1.68 fold
G1P3 AVERAGE (G1P3; 10 μM MGBG, all samples): 0.96 fold
G1P3 MAX (G1P3; 10 μM MGBG, all samples): 2.13 fold
G1P3 MIN (G1P3; 10 μM MGBG, all samples): −6.63 fold
ADA signal +, Average (ADA; average of HIV samples): 4029
ADA signal +, Average (ADA; [2]): 5520
ADA fold change, MGBG/ON ratio (up-regulation) (ADA; [3]): 3.2 fold (2×) and 2.9 fold and 5.6 fold and 3.6 fold (2×) and 3.7 fold and 4.2 fold and 51.2 fold and 14.6 fold and 5.9 fold and 2.0 fold and 18.3 fold and 2.3 fold and 22.3 fold
ADA regulation by MGBG (ADA; all samples tested): consistently up-regulated
ADA signal + (ADA; [4]): 769 and 6724 and 6874 and 1964 and 7488 and 5384 and 2900 and 5895 and 5781 and 6428 and 6731 and 1845 and 4290 and 832 and 5472
GPR43 expression median signal relative to no MGBG (GPR43): 2.4
ADA transcription median change (increase) (adenosine deaminase; CD14+ monocytes, p=0.0156): 10.8 fold
ADA transcription median change (increase) (adenosine deaminase; CD14/CD16++ cells): 2.8 fold
ADA transcription change (adenosine deaminase; Double negative cells and CD16+ cells): did not change significantly
probes down-regulated at least 1.5 fold (mononuclear cells): 489 probes
probes up-regulated at least 1.5 fold (mononuclear cells): 382 probes
LILRA1 signal +, Average (LILRA1; average of HIV samples): 77
LILRA1 signal +, Average (LILRA1; [2]): 133
LILRA1 fold change, ON/MGBG ratio (down-regulation) (LILRA1; [3]): 6.5 fold and 1.8 fold and 0.3 fold (2×) and 11.6 fold and 3.7 fold and 3.1 fold and 13.8 fold and 2.4 fold and 0.5 fold and 1.1 fold and 2.9 fold and 14.6 fold and 1.3 fold (2×)
samples with LILRA1 down-regulated more than 2 fold (LILRA1; HIV samples): 5 of 9
LILRA1 signal + (LILRA1; [4]): 40 and 129 and 10 and 65 and 246 and 73 and 42 and 99 and 94 and 212 and 277 and 21 and 1 and 15 and 164
samples less than 2 fold changed, TNFα probe (TNFα; HIV infected individuals): 6 out of 9
samples less than 2 fold changed, TNFα probe (TNFα; controls): 2 out of 6
average change for the TNFα Probe set, up-regulated (TNFα; presence of MGBG, all samples): 8.7 fold
FCGR1a signal +, Average (FCGR1a; average of HIV samples): 439
FCGR1a signal +, Average (FCGR1a; [2]): 608
FCGR1A fold change, ON/MGBG ratio (down-regulation) (FCGR1a; [3]): 9.2 fold and 1.3 fold and 0.3 fold (3×) and 0.9 fold (2×) and 0.1 fold and 4.3 fold and 2.7 fold and 2.5 fold and 2.2 fold and 0.4 fold and 12.3 fold and 1.0 fold
samples with FCGR1A down-regulated more than 2 fold (FCGR1a; HIV samples): 6 of 9
FCGR1a signal + (FCGR1a; [4]): 415 and 461 and 59 and 800 and 1561 and 136 and 51 and 612 and 53 and 1362 and 1435 and 264 and 33 and 14 and 347
Fold change IL1RN by QRT-PCR (IL1RN; 10 μM MGBG overnight, untreated vs treated, negative = fold reduction, individual samples): −10.41 fold and −3.73 fold and 1.12 fold and −1.73 fold and −1.36 fold and −14.22 fold and −1.87 fold and −1.78 fold and 8.63 fold and −2.27 fold and 1.59 fold and −8.17 fold and −19.56 fold and −1.77 fold and −4.92 fold and −2.31 fold and −8.28 fold and −17.75 fold
Fold change IL1RN, AVERAGE (IL1RN; [5]): −4.9 fold
Fold change IL1RN, MAX (IL1RN; [5]): 8.6 fold
Fold change IL1RN, MIN (IL1RN; [5]): −19.6 fold
IL1RN % >2 fold Changed (IL1RN; share of samples, 10 μM MGBG): 55%
samples with IL1RN down-regulated (IL1RN; unsorted samples): 15 out of 18
